For experiment [1], the system named is NMDAR in primary rat hippocampal neurons. The experiment is classed as cell-based, rat (Sprague-Dawley).
Experiment [2] has the same test system. The experiment is classed as cell-based, rat (Sprague-Dawley). This is another data set of the same source.

“Also recorded” adds a separate entry of the source.

As for “GIKAQRDILYYγGγGγEHI-CONH2 [scrambled peptide]”, in experiment [1], the “effect on iCa^2+ levels” value is reported as “did not result in any decrease in iCa^2+ levels; also recorded: no significant differences; also recorded: no such inhibitory activity”. In addition, the “inhibition of NMDA-evoked current” value in experiment [2] was “did not inhibit NMDA-evoked currents; also recorded: no such inhibitory activity”.

The record behind these values is article PMC3832412 (PLoS ONE, 2013).
